Reference: paper PMC3749867, “Evolutionarily conserved structural changes in phosphatidylinositol 5-phosphate 4-kinase (PI5P4K) isoforms are responsible for differences in enzyme activity and localization” (Biochemical Journal, 2013)

Assays:
[1] = target: T1, PI5P4Kβ (Homo sapiens, UniProt P78356); assay: radiometric lipid kinase assay, TLC; format: biochemical; settings: read-out: Km (μM ATP); PtdIns5P co-substrate, 10 mM MgCl2, pH 7.4, 30 °C, ATP 0–150 μM
T1 construct: gene PIP4K2B; full-length cDNA in pGEX6P, E. coli BL21(DE3), GST fusion or GST cleaved by PreScission; mutant PI5P4Kβ+ His-tagged; homodimer
T1 sequence (P78356 1-416): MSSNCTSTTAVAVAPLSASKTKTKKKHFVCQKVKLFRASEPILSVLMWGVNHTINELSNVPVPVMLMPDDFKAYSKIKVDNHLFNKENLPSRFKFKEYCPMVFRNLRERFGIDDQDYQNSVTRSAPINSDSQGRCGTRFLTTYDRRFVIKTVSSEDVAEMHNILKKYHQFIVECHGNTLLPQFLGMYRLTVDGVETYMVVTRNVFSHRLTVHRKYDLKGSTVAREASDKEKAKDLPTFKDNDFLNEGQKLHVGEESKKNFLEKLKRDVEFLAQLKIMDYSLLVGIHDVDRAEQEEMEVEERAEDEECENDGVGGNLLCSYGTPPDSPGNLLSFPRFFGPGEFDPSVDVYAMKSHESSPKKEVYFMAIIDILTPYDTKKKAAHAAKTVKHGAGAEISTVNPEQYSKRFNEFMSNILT
Excerpt: radiometric lipid kinase assay, TLC on PI5P4Kβ

[2] = target: T2, dPIP4K (Drosophila melanogaster, UniProt A4V141); assay: radiometric lipid kinase assay, TLC; format: biochemical; settings: PtdIns5P co-substrate, 10 mM MgCl2, pH 7.4, 30 °C; labelled compound
T2 construct: gene PIP4K; pGEX6P, E. coli BL21(DE3), GST fusion or GST cleaved by PreScission
T2 sequence (A4V141 1-404): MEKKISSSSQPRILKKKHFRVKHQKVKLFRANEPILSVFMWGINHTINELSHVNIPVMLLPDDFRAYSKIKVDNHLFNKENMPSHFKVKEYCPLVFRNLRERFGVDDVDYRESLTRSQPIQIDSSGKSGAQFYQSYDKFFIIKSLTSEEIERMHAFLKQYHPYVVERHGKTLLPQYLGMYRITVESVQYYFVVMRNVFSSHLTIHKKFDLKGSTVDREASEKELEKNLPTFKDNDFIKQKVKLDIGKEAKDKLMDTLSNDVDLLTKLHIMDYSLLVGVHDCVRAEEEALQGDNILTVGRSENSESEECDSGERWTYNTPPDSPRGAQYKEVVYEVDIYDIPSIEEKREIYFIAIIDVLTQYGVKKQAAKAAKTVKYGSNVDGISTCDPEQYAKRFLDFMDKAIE

[3] = target: T3, PPK-2 (Caenorhabditis elegans, UniProt Q9BL73); assay: radiometric lipid kinase assay, TLC; format: biochemical; settings: PtdIns5P co-substrate, 10 mM MgCl2, pH 7.4, 30 °C; labelled compound
T3 construct: pGEX6P, E. coli BL21(DE3), GST fusion or GST cleaved by PreScission
T3 sequence (Q9BL73 1-401): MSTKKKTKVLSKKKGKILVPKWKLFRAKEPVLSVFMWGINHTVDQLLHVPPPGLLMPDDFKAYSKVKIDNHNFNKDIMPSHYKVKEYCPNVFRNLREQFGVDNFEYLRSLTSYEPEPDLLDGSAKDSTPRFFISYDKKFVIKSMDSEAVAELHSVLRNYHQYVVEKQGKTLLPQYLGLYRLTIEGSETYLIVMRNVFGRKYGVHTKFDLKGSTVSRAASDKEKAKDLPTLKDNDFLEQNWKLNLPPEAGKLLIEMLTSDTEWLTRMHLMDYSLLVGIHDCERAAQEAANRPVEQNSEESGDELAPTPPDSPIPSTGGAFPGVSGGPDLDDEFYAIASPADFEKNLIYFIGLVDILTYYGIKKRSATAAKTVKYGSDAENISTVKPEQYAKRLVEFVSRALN

[4] = target: T4, PI5P4Kγ (Homo sapiens, UniProt Q8TBX8, E153T/N195G/E196V/D197E, form not given); settings: read-out: Km (μM ATP); PtdIns5P co-substrate, 10 mM MgCl2, pH 7.4, 30 °C, ATP 0–150 μM
T4 construct: gene PIP4K2C
T4 sequence (Q8TBX8 2-421 E153T/N195G/E196V/D197E, form open): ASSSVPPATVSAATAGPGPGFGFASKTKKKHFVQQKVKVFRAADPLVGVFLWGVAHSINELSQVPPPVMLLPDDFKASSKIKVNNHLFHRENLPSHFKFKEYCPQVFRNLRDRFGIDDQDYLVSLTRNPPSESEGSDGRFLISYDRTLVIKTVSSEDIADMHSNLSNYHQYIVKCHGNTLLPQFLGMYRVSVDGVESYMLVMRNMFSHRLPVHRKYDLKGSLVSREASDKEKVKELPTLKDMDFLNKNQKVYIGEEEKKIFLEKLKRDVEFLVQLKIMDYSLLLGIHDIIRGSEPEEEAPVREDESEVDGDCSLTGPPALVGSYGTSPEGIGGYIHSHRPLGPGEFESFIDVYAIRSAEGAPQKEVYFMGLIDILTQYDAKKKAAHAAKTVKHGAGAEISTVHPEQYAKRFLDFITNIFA

`Nc1ncnc2c1ncn2[C@@H]1O[C@H](COP(=O)(O)OP(=O)(O)OP(=O)(O)O)[C@@H](O)[C@H]1O` [ATP] was tested, and the Km [1] was 7.58 µM, the “radiometric lipid kinase assay, TLC” value [2] was “We assayed the PI5P4K activity of recombinant dPIP4K from D. melanogaster” and the “radiometric lipid kinase assay, TLC” value [3] was “PPK-2 from C. elegans had a similar specific activity to that of PI5P4Kγ”. It also gave a Km [4] of 3.96 µM.
